We go through eleven molecules from US20140135310A1, “SULPHONAMIDE DERIVATIVES OF ALICYCLIC AMINES FOR THE TREATMENT OF CENTRAL NERVOUS SYSTEM DISEASES” (Adamed Sp. z o.o., priority 2011, published 2014).

Test [1] deals with dopaminergic receptors D2 (Homo sapiens, UniProt P14416). The test is described as follows: Radioligand binding assay, dopaminergic D2 receptors. The following applies: for inhibition at 1 µM: binding assay, test compound 1×10^−6 M; for Ki: read-out: Inhibition constants Ki for D2 receptors, D2. The gist of the method: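 Total binding is counted by scintillation and non-specific binding subtracted using an excess of unlabelled ligand. IC50 comes from a Hill-equation fit with slope factor; Ki follows Cheng–Prusoff.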

Test [2] deals with dopaminergic receptors D3 (Homo sapiens, UniProt P35462). The test is described as follows: Radioligand binding assay, dopaminergic D3 receptors. To be noted: test compound 1×10^−6 M. The gist of the method:
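Competition radioligand binding at human D2, D3 and D4.4 receptors, detected by scintillation counting; nonspecific binding defined with excess unlabelled ligand. Results as percent inhibition of control specific binding; IC50 by Hill-equation nonlinear regression; Ki via Cheng-Prusoff, with radioligand KD from Scatchard plot.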

The next test concerns the target T1, 5-HT2A receptor (Homo sapiens, UniProt P28223).
T1 construct: purchased PerkinElmer
Nature of the test: Radioligand binding assay, serotoninergic 5-HT2A receptors. The following applies: for inhibition at 1 µM: binding assay result in %, Table 5a; for Ki: read-out: Inhibition constants Ki, 5-HT2A. The gist of the method:
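Radioligand competition binding with scintillation counting; nonspecific binding defined by excess unlabelled ligand. Data as percent inhibition of control specific binding. IC50 by Hill-equation fit of competition curves; Ki by Cheng-Prusoff, with radioligand Kd from Scatchard plot.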

A further test has as its target T2, 5-HT6 receptor (Homo sapiens, UniProt P50406).
T2 construct: purchased PerkinElmer
The test is described as follows: Radioligand binding assay, serotoninergic 5-HT6 receptors. To be noted: for inhibition at 1 µM: binding assay result in %, Table 5a; for Ki: read-out: Inhibition constants Ki, 5-HT6. The gist of the method: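 Values are Ki from Cheng–Prusoff, taking IC50 from Hill nonlinear regression of competition curves and KD from a Scatchard plot. Specific binding was total minus binding with excess unlabelled ligand. Radioligand displacement was detected by scintillation counting, and data were also reported as percent of control specific binding.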

Another test concerns the target T3, 5-HT7 receptor (Homo sapiens, UniProt P34969).
T3 construct: purchased PerkinElmer
Nature of the test: Radioligand binding assay, serotoninergic 5-HT7 receptors. The following applies: binding assay result in %, Table 5a. The gist of the method: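 Competition binding at human 5-HT7 receptors with a radioligand, detected by scintillation counting; non-specific binding was defined with excess unlabelled ligand. IC50 came from Hill-equation fits of competition curves, and Ki from Cheng–Prusoff using radioligand concentration and Scatchard-derived KD.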

In test [3] the test system is α1 adrenergic receptors (rat cerebral cortex). Nature of the test: Radioligand binding assay, adrenergic α1 receptors. To be noted: test compound 1×10^−6 M. The gist of the method: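 Values derive from radioligand displacement, with non-specific binding defined by excess cold ligand and detection by scintillation. Hill-fit IC50s were converted to Ki via Cheng-Prusoff using Scatchard-derived Kd; percent inhibition of control specific binding also reported.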

The target of another test is T4, α2C adrenergic receptors (Homo sapiens, UniProt P18825).
T4 construct: expressed in transfected cells; host or cells: CHO cells
T4 sequence (P18825 1-462): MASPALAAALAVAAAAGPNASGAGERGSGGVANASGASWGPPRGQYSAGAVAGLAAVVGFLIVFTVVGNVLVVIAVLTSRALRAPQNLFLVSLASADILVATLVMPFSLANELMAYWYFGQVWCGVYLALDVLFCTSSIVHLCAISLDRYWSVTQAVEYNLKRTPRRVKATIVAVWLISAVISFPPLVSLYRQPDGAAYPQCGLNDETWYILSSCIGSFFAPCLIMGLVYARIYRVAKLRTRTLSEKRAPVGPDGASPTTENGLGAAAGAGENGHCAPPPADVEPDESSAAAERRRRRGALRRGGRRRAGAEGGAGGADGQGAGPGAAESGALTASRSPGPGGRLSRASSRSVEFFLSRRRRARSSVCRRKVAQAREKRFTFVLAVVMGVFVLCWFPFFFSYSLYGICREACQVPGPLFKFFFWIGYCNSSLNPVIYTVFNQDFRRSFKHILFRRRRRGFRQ
The test is described as follows: Radioligand binding assay, adrenergic α2C receptors. The following applies: test compound 1×10^−6 M. The gist of the method:
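Competitive radioligand binding at human α2C receptors, with scintillation counting. Nonspecific binding defined with excess unlabelled ligand; results given as % inhibition of control specific binding. IC50 from Hill-equation fits of competition curves; Ki via Cheng-Prusoff using radioligand concentration and Scatchard-derived KD.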

The target of test [4] is T5, serotonin transporter (SERT) (Homo sapiens, UniProt P31645).
T5 construct: expressed in transfected cells; host or cells: CHO cells
Nature of the test: Radioligand binding assay, serotonin transporter (SERT). To be noted: for inhibition at 1 µM: binding assay, test compound 1×10^−6 M; for Ki: read-out: Inhibition constants Ki for SERT, SERT. The gist of the method:
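Radioligand competition binding with scintillation detection; specific binding is total minus binding under excess unlabelled ligand. Reported as % of control specific binding or % inhibition; IC50 from Hill-equation non-linear regression of competition curves, and Ki via Cheng-Prusoff using radioligand concentration and Scatchard-derived KD.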

SMILES strings stand for the structures.

T1 sequence (P28223 whole entry): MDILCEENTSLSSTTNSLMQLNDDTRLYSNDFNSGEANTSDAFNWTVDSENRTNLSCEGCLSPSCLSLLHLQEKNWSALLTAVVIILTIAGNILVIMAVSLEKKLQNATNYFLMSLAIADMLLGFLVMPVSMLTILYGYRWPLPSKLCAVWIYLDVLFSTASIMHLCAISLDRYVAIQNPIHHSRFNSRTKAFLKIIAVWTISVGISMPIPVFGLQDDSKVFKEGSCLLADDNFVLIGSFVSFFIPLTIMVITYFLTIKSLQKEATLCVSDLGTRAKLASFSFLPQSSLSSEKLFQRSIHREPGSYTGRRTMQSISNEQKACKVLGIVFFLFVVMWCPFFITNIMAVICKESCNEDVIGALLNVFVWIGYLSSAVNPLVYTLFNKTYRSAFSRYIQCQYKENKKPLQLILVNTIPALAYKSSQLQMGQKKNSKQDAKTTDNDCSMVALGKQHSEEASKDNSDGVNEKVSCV
T2 sequence (P50406 whole entry): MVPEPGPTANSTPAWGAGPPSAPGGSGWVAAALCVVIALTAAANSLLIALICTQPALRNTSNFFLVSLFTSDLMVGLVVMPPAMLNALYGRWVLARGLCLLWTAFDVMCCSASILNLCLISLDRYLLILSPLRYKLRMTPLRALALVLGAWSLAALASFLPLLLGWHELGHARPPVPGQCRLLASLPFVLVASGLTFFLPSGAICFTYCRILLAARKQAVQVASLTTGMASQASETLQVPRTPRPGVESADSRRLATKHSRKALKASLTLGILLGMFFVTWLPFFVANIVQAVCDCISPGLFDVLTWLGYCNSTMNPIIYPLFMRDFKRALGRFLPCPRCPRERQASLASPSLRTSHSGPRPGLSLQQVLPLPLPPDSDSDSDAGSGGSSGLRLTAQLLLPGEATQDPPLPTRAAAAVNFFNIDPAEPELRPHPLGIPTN
T5 sequence (P31645 whole entry): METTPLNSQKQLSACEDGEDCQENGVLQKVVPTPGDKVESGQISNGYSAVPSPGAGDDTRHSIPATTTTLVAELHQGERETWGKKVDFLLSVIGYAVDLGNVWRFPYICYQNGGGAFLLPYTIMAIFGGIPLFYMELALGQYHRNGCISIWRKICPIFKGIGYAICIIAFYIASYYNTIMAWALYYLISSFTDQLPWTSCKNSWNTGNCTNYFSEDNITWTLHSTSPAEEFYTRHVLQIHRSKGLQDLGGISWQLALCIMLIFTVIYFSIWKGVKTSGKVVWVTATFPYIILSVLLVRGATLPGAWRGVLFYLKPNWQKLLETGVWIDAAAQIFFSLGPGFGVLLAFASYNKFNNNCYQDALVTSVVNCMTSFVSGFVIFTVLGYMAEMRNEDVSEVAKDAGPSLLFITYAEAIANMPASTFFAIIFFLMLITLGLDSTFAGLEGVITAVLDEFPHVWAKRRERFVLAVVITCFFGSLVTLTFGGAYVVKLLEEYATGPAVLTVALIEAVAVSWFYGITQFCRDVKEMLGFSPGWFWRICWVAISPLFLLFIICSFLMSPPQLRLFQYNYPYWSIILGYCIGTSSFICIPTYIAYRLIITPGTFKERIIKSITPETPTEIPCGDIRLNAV
Chain of dopaminergic receptors D3 (P35462 whole entry): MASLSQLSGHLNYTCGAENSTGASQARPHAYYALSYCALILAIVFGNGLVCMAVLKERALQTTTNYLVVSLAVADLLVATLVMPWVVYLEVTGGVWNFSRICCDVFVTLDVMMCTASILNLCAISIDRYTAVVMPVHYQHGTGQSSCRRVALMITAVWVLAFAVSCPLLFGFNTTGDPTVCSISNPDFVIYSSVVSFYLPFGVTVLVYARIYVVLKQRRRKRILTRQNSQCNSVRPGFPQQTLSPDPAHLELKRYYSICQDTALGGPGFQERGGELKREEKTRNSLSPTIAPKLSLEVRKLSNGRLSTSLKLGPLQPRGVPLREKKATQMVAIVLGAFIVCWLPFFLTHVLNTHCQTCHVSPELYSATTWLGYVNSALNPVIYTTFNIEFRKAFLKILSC
Chain of dopaminergic receptors D2 (P14416 whole entry): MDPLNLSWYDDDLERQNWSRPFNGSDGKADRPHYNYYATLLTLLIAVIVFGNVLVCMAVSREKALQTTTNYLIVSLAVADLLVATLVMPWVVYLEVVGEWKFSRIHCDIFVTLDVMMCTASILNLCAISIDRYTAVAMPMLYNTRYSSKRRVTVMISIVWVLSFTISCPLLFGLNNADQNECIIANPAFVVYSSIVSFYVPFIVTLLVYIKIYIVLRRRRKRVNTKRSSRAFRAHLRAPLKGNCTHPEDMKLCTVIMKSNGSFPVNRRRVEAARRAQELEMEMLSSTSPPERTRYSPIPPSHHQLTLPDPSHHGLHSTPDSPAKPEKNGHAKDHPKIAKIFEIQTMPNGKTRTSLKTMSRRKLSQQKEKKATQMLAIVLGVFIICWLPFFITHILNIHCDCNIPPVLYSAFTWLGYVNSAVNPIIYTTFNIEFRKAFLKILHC
T3 sequence (P34969 whole entry): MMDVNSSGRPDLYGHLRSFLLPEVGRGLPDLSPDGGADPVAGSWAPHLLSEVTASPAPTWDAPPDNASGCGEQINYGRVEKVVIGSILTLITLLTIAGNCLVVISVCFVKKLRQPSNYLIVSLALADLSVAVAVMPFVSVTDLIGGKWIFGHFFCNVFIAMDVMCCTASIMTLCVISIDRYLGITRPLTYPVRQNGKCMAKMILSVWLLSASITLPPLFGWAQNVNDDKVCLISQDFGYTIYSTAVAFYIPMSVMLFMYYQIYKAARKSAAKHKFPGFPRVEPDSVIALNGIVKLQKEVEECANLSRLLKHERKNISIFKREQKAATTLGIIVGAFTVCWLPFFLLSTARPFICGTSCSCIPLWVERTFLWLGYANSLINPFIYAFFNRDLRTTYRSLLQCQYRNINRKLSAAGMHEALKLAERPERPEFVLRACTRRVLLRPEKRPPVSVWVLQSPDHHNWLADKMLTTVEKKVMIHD

In general, inhibition refers to the relative decrease from the control value, in per cent. Broadly, the Ki is a measure of affinity in units of concentration, obtained from inhibition or displacement. Take `O=S(=O)(NCC1CN(CCOc2cccc3ccccc23)C1)c1ccc2ccccc2c1` [Compound 122, N-[[1-[2-(1-Naphthyloxy)ethyl]azetidin-3-yl]methyl]naphthalene-2-sulphonamide]: the inhibition at 1 µM in test [1] came out at 99%; in test [2] it was 100%; on 5-HT2A receptor, 83%; on 5-HT6 receptor it was 99%; at 5-HT7 receptor, 100%; at α2C adrenergic receptors, 101%. In test [4], the inhibition at 1 µM is 98%. The results for the inhibition constant (Ki) (at 5-HT6 receptor; in test [4]) were 13 nM and 17 nM, respectively. Further, the “α1 [%]” value in test [3] is 53%.

Regarding `O=S(=O)(NCC1CN(CCCc2noc3cc(F)ccc23)C1)c1cccc2ccccc12` [Compound 133, N-[[1-[3-(6-Fluoro-1,2-benzoxazol-3-yl)propyl]azetidin-3-yl]methyl]-naphthalene-1-sulphonamide], the inhibition at 1 µM in test [1] stood at 93%; in test [2] it was 74%; at 5-HT2A receptor, 95%; on 5-HT6 receptor, 92%; on 5-HT7 receptor, 97%; on α2C adrenergic receptors, 91%. Moreover, in test [4], the inhibition at 1 µM was 42%. In addition, the “α1 [%]” value in test [3] was found to be 90%.

As to `O=S(=O)(NCC1CCN(CCOc2cccc3ccccc23)C1)c1ccc2ccccc2c1` (stereo not shown) [Compound 124, N-[[1-[2-(1-Naphthyloxy)ethyl]pyrrolidin-3-yl]methyl]naphthalene-2-sulphonamide], the inhibition at 1 µM in test [1] was found to be 94%; in test [2] it was 94%; on 5-HT2A receptor, 87%; at 5-HT6 receptor it was 99%; at 5-HT7 receptor it was 99%; on α2C adrenergic receptors, 95%. For the same molecule, in test [4], the inhibition at 1 µM is 100%. Besides, in test [3], the “α1 [%]” value is on record as 33%.

Turning to `O=S(=O)(NCC1CN(CCCc2noc3cc(F)ccc23)C1)c1ccc2scnc2c1` [Compound 132, N-[[1-[3-(6-Fluoro-1,2-benzoxazol-3-yl)propyl]azetidin-3-yl]methyl]-1,3-benzothiazole-5-sulphonamide], the inhibition at 1 µM in test [1] stood at 82%; in test [2] it was 60%; at 5-HT2A receptor it was 97%; on 5-HT6 receptor, 69%; at 5-HT7 receptor, 94%; on α2C adrenergic receptors, 73%. For the same molecule, in test [4], the inhibition at 1 µM was 20%. Also, the “α1 [%]” value in test [3] is 86%.

On to `Cc1cccc(S(=O)(=O)NC2CCN(CCCc3c[nH]c4ccc(Cl)cc34)C2)c1` (stereo not shown) [Compound 86, N-[1-[3-(5-chloro-1H-indol-3-yl)propyl]pyrrolidin-3-yl]-3-methyl-benzenesulphonamide], for which the inhibition at 1 µM turned out to be 93% in test [1]; 97% in test [2]; 97% at 5-HT2A receptor; 98% on 5-HT6 receptor; 98% on 5-HT7 receptor; 106% on α2C adrenergic receptors. In test [4], the inhibition at 1 µM amounted to 105%. For the same molecule, the Ki at 5-HT6 receptor came out at 13 nM; in test [4], 1.1 nM. Moreover, the “α1 [%]” value in test [3] was determined as 50%.

On to `CC1(C)Cc2cccc(OCCN3CCC(NS(=O)(=O)c4ccc5ccccc5c4)C3)c2O1` (stereo not shown) [Compound 108, N-[1-[2-[(2,2-Dimethyl-3H-benzofuran-7-yl)oxy]ethyl]pyrrolidin-3-yl]naphthalene-2-sulphonamide], for which the inhibition at 1 µM in test [1] came to 93%; in test [2], 95%; on 5-HT2A receptor, 98%; at 5-HT6 receptor it was 59%; at 5-HT7 receptor, 98%; at α2C adrenergic receptors, 83%. Further, in test [4], the inhibition at 1 µM stood at 36%. The “α1 [%]” value in test [3] turned out to be 40%.

As to `Cc1c(S(=O)(=O)NCC2CN(CCCc3noc4cc(F)ccc34)C2)sc2ccc(Cl)cc12` [Compound 131, 5-Chloro-N-[[1-[3-(6-fluoro-1,2-benzoxazol-3-yl)propyl]azetidin-3-yl]-methyl]-3-methyl-benzothiophene-2-sulphonamide], the inhibition at 1 µM in test [1] is 97%; in test [2] it was 94%; at 5-HT2A receptor it was 99%; on 5-HT6 receptor, 97%; at 5-HT7 receptor it was 95%; on α2C adrenergic receptors it was 92%. The inhibition at 1 µM in test [4] was 55%. Besides, the results for the inhibition constant Ki (in test [1]; at 5-HT2A receptor; at 5-HT6 receptor) were 19 nM, 5.5 nM and 9 nM, respectively. For the same molecule, the “α1 [%]” value in test [3] amounted to 70%.

As to `Cc1c(S(=O)(=O)NCC2CN(CCCc3noc4cc(F)ccc34)C2)sc2ccc(F)cc12` [Compound 130, 5-Fluoro-N-[[1-[3-(6-fluoro-1,2-benzoxazol-3-yl)propyl]azetidin-3-yl]methyl]-3-methyl-benzothiophene-2-sulphonamide], the inhibition at 1 µM came out at 97% in test [1]; 94% in test [2]; 100% on 5-HT2A receptor; 98% at 5-HT6 receptor; 98% at 5-HT7 receptor; 88% on α2C adrenergic receptors. The inhibition at 1 µM in test [4] was 64%. For the same molecule, the inhibition constant (Ki) was 10 nM in test [1], 4.2 nM on 5-HT2A receptor and 9.7 nM on 5-HT6 receptor. The “α1 [%]” value in test [3] was 86%.

For `CC1(C)Cc2cccc(OCCN3CCC(NS(=O)(=O)c4cccc(O)c4)C3)c2O1` (stereo not shown) [Compound 107, N-[1-[2-[(2,2-Dimethyl-3H-benzofuran-7-yl)oxy]ethyl]pyrrolidin-3-yl]-3-hydroxybenzenesulphonamide], the inhibition at 1 µM came to 89% in test [1]; 97% in test [2]; 97% on 5-HT2A receptor; 39% on 5-HT6 receptor; 84% at 5-HT7 receptor; 77% on α2C adrenergic receptors. The inhibition at 1 µM in test [4] is -4%. In test [3], the “α1 [%]” value was 28%.

With `O=S(=O)(NC1CCN(CCOc2cccc3ccccc23)C1)c1ccc2ccccc2c1` (stereo not shown) [Compound 116, N-[1-[2-(1-Naphthyloxy)ethyl]pyrrolidin-3-yl]naphthalene-2-sulphonamide], the inhibition at 1 µM was 91% in test [1]; 98% in test [2]; 96% at 5-HT2A receptor; 95% at 5-HT6 receptor; -49% at 5-HT7 receptor; 93% on α2C adrenergic receptors. Also, the inhibition at 1 µM in test [4] was found to be 95%. Further, the results for the Ki (on 5-HT6 receptor; in test [4]) were 71 nM and 31 nM, respectively. The “α1 [%]” value in test [3] came to 23%.

Regarding `O=S(=O)(NCC1CN(CCCc2noc3cc(F)ccc23)C1)c1ccc2ccccc2c1` [Compound 134, N-[[1-[3-(6-Fluoro-1,2-benzoxazol-3-yl)propyl]azetidin-3-yl]methyl]-naphthalene-2-sulphonamide], the inhibition at 1 µM in test [1] turned out to be 96%; in test [2], 80%; at 5-HT2A receptor, 99%; on 5-HT6 receptor, 94%; at 5-HT7 receptor, 95%; on α2C adrenergic receptors, 87%. In addition, the inhibition at 1 µM in test [4] worked out at 47%. In test [3], the “α1 [%]” value is recorded as 61%.
